Measured values published in patent publication US9408393B2, “Bismuth-thiols as antiseptics for agricultural, industrial and other uses” (Microbion Corporation, priority 2010, dated 2016).

How the values were obtained:
H. marina = assay: MIC against marine bacteria; format: cell-based; conditions: marine bacterium H. marina
Description: (§1) This example describes the antimicrobial activity of bismuth containing compounds. The MIC values of three bismuth containing compounds, bismuth dimercaprol (BisBAL), bismuth dimercaptotoluene (BisTOL), and bismuth ethanedithiol (BisEDT), against three different marine bacteria were determined using methods routinely practiced by persons skilled in the art.

M. hydrocarbonoclasicus = assay: MIC against marine bacteria; format: cell-based; conditions: marine bacterium M. hydrocarbonoclasicus
Description: as §1

V. alginolyticus = assay: MIC against marine bacteria; format: cell-based; conditions: marine bacterium V. alginolyticus
Description: as §1

barnacle larvae = assay: Barnacle larvae settlement inhibition
Description: Compounds, BisBAL and BisTOL were included in an assay to determine the inhibitory activity of each compound on barnacle larvae settlement behavior. Methods were performed according to techniques practiced in the art. […] In another experiment, BisEDT was dissolved either directly in natural seawater or first dissolved in DMSO and then diluted in natural seawater. The EC50 measurements were not statistically different.

Enteromorpha spores = assay: Inhibition of algae spore germination; conditions: up to ten micrograms per ml
Description: The effect of three bismuth containing compounds, bismuth dimercaprol (BisBAL), bismuth dimercaptotoluene (BisTOL), and bismuth ethanedithiol (BisEDT), on the settlement of algae was determined, particularly the ability of each compound to inhibit germination of Enteromorpha spores. Each compound was tested at 0.001, 0.01, 0.1, 1.0, and 10.0 μg/ml.

marine diatom = assay: Marine diatom settlement inhibition; conditions: 0.1 μg/ml
Description: The effect of three bismuth containing compounds, bismuth dimercaprol (BisBAL), bismuth dimercaptotoluene (BisTOL), and bismuth ethanedithiol (BisEDT), on growth of a marine diatom was determined according to techniques practiced in the art. Settlement of marine diatoms (diatoms per fov) was inhibited by increasing concentrations of each of the three compounds (0.001, 0.01, 0.1, 1.0, and 10.0 μg/ml). […] 1987; 41:435-64; Domenico et al., Antimicrob Agents and Chemother. 2001; 45(5):1417-21; Halwani et al., Int J Pharm. 2008; 358:278-84; Johnson et al., Clin Infect Dis. 2007; 45(4):409-415. ADA Council on Scientific Affairs. Direct and indirect restorative materials. JADA 2003; 134:463-72. Alliance for Coastal Technologies (ACT). 2004. Biofouling Prevention Technologies for Coastal Sensors/Sensor Platforms. University of Maryland Center of Environmental Science, Workshop Proceedings, November 2003. UMCES Technical Report Series No. TS-426-04-CBL, Solomons, M D. Athanassiadis et al., Aust Dent J 2007; 52:S64-82. Alt et al., Antimicrob Agents Chemother 2004; 48:4084-88. Bayston et al., Biomaterials 2009; 30:3167-73. Bernardo et al., JADA 2007; 138:775-783. Beytha et al., J Dent 2007; 35:201-206. Bohner et al., J Pharm Sci 1997; 86:565-72. Bruxton, Eng News 1908; 59,525; Chem. Abs., 2:2010. Bueno et al. Oral Surg Oral Med Oral Pathol Oral Radiol Endod 2009; 107:e65-9. […]

Q: Which MIC (H. marina) does the source give for bismuth dimercaptotoluene [BisTOL] here?
A: 7.2 µg/mL

Q: And the MIC (M. hydrocarbonoclasicus)?
A: 0.4 µg/mL

Q: What about the MIC (V. alginolyticus) of the same substance?
A: 1 µg/mL

Q: And the “EC50 (concentration at which 50% settlement inhibition occurs)” value (barnacle larvae)?
A: 15.4 ppm

Q: What about the “Effect on germination of algae spores” value (Enteromorpha spores) of the same substance?
A: no inhibitory effect

Q: And the “Inhibition of marine diatom settlement” value (marine diatom)?
A: approximately 30%
